# Legend:
# heart rate = assay: Bradycardiac test: effect of test compound on the heart rate of anesthetized cats; format: in vivo
# Procedure: The effect of the test compound on the heart rate was tested at various dosage levels on 2-4 cats of both sexes per dose. The average body weight of the cats was 2.5-3.5 kg. For this purpose the animals were anesthetized with nembutal (30 mgm/kg i.p.) and chloralose-urethane (40 mgm/ml chloralose + 200 mgm/ml urethane as required). The test compound in aqueous solution was injected into the Vena saphena (i.v.) or duodenum (i.p.).
# The heart rate was registered before and after administration of the test compound on a Grass-polygraph by means of a Grass-tachograph from the electrocardiogram (precordial lead).
# [1] = LD50 in mice, i.v., observation time of 14 days; conditions: mouse, in vivo, iv, observation time of 14 days
# Source text: Additionally, it should be noted that at all dosage levels the test compounds were tolerated very well and produced no toxic side-effects.
Structure (SMILES),Duration of effective action (heart rate; 0.3 mgm/kg i.v.),Duration of effective action (heart rate; 1.0 mgm/kg i.v.),Duration of effective action (heart rate; 2.0 mgm/kg i.v.),Duration of effective action (heart rate; 3.0 mgm/kg i.v.),LD50 at 336 h [1],Duration of effective action (heart rate; 0.1 mgm/kg i.v.),Duration of effective action (heart rate; 3.0 mgm/kg i.d.),Duration of effective action (heart rate; 10.0 mgm/kg i.v.),Duration of effective action (heart rate; 30.0 mgm/kg i.d.)
"COc1ccc(CCNCCCN2CCc3cc(OC)c(OC)cc3C2=O)cc1OC.Cl [B, 1-[6,7-dimethoxy-3,4-dihydro-2H-isoquinolin-1-one-2-yl]-3-[N-(2-(3,4-dimethoxy-phenyl)-ethyl)-amino] propane hydrochloride]",22 min,17 min,43 min,,,,,,
"COc1ccc(CCNCCCN2CC(C)(C)c3cc(OC)c(OC)cc3C2=O)cc1OC.Cl [D, 1-[4,4-dimethyl-6,7-dimethoxy-3,4-dihydro-2H-isoquinolin-1-one-2-yl]-3-[N-(2-(3,4-dimethoxy-phenyl)-ethyl)-amino]-propane hydrochloride]",,6 min,,16 min,,,,,
"COc1ccc(CCN(C)CCCN2CCc3cc(OC)c(OC)cc3C2=O)cc1OC.Cl [A, 1-[6,7-dimethoxy-3,4-dihydro-2H-isoquinolin-1-one-2-yl]-3-[N-methyl-N-(2-(3,4-dimethoxy-phenyl)-ethyl)-amino] propane hydrochloride]",30 min,50 min,,,53 mg/kg,30 min,60 min,70 min,60 min
"COc1ccc(CCN(C)CCCN2CCCc3cc(OC)c(OC)cc3C2=O)cc1OC.Cl [E, 1-[7,8-dimethoxy-1,2,3,4-tetrahydro-5H-2-benzazepin-1-one-2-yl]-3-[N-methyl-N-(2-(3,4-dimethoxy-phenyl)-ethyl)-amino]-propane hydrochloride]",,30 min,20 min,,,,,,
"COc1ccc(CCN(C)CCCN2CC(C)(C)c3cc(OC)c(OC)cc3C2=O)cc1OC.Cl [C, 1-[4,4-dimethyl-6,7-dimethoxy-3,4-dihydro-2H-isoquinolin-1-one-2-yl]-3-[N-methyl-N-(2-(3,4-dimethoxy-phenyl)-ethyl)-amino]-propane hydrochloride]",8 min,11 min,,18 min,,,,,

# Source: patent US4137318A, “N-(phenylalkylamino-alkyl)-dihydroisoquinolinones, pharmaceutical compositions and methods employing them” (Boehringer Ingelheim GmbH, priority 1976, dated 1979)
